Source: PubChem BioAssay AID1963984 (Molecular Pharmacology Branch, DTP, NCI, 2024)

Test system: 233499-124-R-J3-PDC spheroids with HUVEC/MSC, viability
Experiment: Anticancer human tumor 233499-124-R-J3-PDC patient-derived colon adenocarcinoma cell line growth inhibition [PI3K]
Conditions: for viability, T/C: stronger effect = lower value; active = viability on the fitted dose curve at most 10% of control; inactive = the rest
How it was run: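 Agents were dosed from a top concentration near clinical Cmax (otherwise 10 microM) in half-log decrements, alone or combined with PI3K inhibitors. The spheroids contain tumor cells plus endothelial (HUVEC) and MSC stroma; viability is measured.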

[1] = curve of first compound, second compound 0.0316 µM
[2] = curve of first compound, second compound 0.1 µM
[3] = curve of first compound, second compound 0.316 µM
[4] = curve of first compound, second compound 1 µM
[5] = curve of first compound, second compound 3.16 µM
[6] = curve of first compound, second compound 10 µM
[7] = second compound 0.0316 µM, first compound 0.0316 µM
[8] = second compound 0.0316 µM, first compound 0.1 µM
[9] = second compound 0.0316 µM, first compound 0.316 µM
[10] = second compound 0.0316 µM, first compound 1 µM
[11] = second compound 0.0316 µM, first compound 3.16 µM
[12] = second compound 0.0316 µM, first compound 10 µM
[13] = second compound 0.1 µM, first compound 0.0316 µM
[14] = second compound 0.1 µM, first compound 0.1 µM
[15] = second compound 0.1 µM, first compound 0.316 µM
[16] = second compound 0.1 µM, first compound 1 µM
[17] = second compound 0.1 µM, first compound 3.16 µM
[18] = second compound 0.1 µM, first compound 10 µM
[19] = second compound 0.316 µM, first compound 0.0316 µM
[20] = second compound 0.316 µM, first compound 0.1 µM
[21] = second compound 0.316 µM, first compound 0.316 µM
[22] = second compound 0.316 µM, first compound 1 µM
[23] = second compound 0.316 µM, first compound 3.16 µM
[24] = second compound 0.316 µM, first compound 10 µM
[25] = second compound 1 µM, first compound 0.0316 µM
[26] = second compound 1 µM, first compound 0.1 µM
[27] = second compound 1 µM, first compound 0.316 µM
[28] = second compound 1 µM, first compound 1 µM
[29] = second compound 1 µM, first compound 3.16 µM
[30] = second compound 1 µM, first compound 10 µM
[31] = second compound 3.16 µM, first compound 0.0316 µM
[32] = second compound 3.16 µM, first compound 0.1 µM
[33] = second compound 3.16 µM, first compound 0.316 µM
[34] = second compound 3.16 µM, first compound 1 µM
[35] = second compound 3.16 µM, first compound 3.16 µM
[36] = second compound 3.16 µM, first compound 10 µM
[37] = second compound 10 µM, first compound 0.0316 µM
[38] = second compound 10 µM, first compound 0.1 µM
[39] = second compound 10 µM, first compound 0.316 µM
[40] = second compound 10 µM, first compound 1 µM
[41] = second compound 10 µM, first compound 3.16 µM
[42] = second compound 10 µM, first compound 10 µM
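Also: spheroids exposed to agents for seven days before readout.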
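For viability, T/C in this document: percent viability relative to DMSO vehicle control taken as 100%.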

CC(C)NCC(C(=O)N1CCN(c2ncnc3c2C(C)CC3O)CC1)c1ccc(Cl)cc1 (stereo unspecified) + Cc1nc(NC(=O)N2CCCC2C(N)=O)sc1-c1ccnc(C(C)(C)C(F)(F)F)c1
> 10 µM: IC50 [1] | IC50 [2] | IC50 [3] | IC50 [4]
1.19 µM: IC50 [5]
inactive: viability, T/C [7] 95.8% | viability, T/C [8] 104% | viability, T/C [9] 94.6% | viability, T/C [10] 86.5% | viability, T/C [11] 94.3% | viability, T/C [12] 56.5% | viability, T/C [13] 91.3% | viability, T/C [14] 94.7% | viability, T/C [15] 96.4% | viability, T/C [16] 83.2% | viability, T/C [17] 91.6% | viability, T/C [18] 51.4% | viability, T/C [19] 87.3% | viability, T/C [20] 82.3% | viability, T/C [21] 80.7% | viability, T/C [22] 76.6% | viability, T/C [23] 74.1% | viability, T/C [24] 72.8% | viability, T/C [25] 84.5% | viability, T/C [26] 75% | viability, T/C [27] 60.7% | viability, T/C [28] 71.7% | viability, T/C [29] 73.4% | viability, T/C [30] 62.1% | viability, T/C [31] 63.1% | viability, T/C [32] 29.6% | viability, T/C [33] 69.9% | viability, T/C [34] 59% | viability, T/C [35] 33.6% | viability, T/C [36] 43% | viability, T/C [37] 22.1% | viability, T/C [38] 19.2% | viability, T/C [39] 28.3% | viability, T/C [40] 22.6% | viability, T/C [41] 31.3% | viability, T/C [42] 23.9%
< 0.0316 µM: IC50 [6]

CC1(C)CCC(CN2CCN(c3ccc(C(=O)NS(=O)(=O)c4ccc(NCC5CCOCC5)c([N+](=O)[O-])c4)c(Oc4cnc5[nH]ccc5c4)c3)CC2)=C(c2ccc(Cl)cc2)C1 + CC(Nc1ccc2c(c1)OCCn1cc(N3C(=O)OCC3C(F)F)nc1-2)C(N)=O
active: viability, T/C (second compound 0.00316 µM, first compound 10 µM) 3.01% | viability, T/C (second compound 0.01 µM, first compound 10 µM) 2.45% | viability, T/C [12] 3.53% | viability, T/C [18] 1.51% | viability, T/C [24] 4.28% | viability, T/C [30] 2.38%
3.2 µM: IC50 [4]
4.86 µM: IC50 [1]
4.85 µM: IC50 [2]
2.16 µM: IC50 [3]
4.1 µM: IC50 (curve of first compound, second compound 0.01 µM)
inactive: viability, T/C (second compound 0.00316 µM, first compound 0.0316 µM) 99.3% | viability, T/C (second compound 0.00316 µM, first compound 0.1 µM) 94.1% | viability, T/C (second compound 0.00316 µM, first compound 0.316 µM) 71.9% | viability, T/C (second compound 0.00316 µM, first compound 1 µM) 109% | viability, T/C (second compound 0.00316 µM, first compound 3.16 µM) 90.1% | viability, T/C (second compound 0.01 µM, first compound 0.0316 µM) 86% | viability, T/C (second compound 0.01 µM, first compound 0.1 µM) 85.5% | viability, T/C (second compound 0.01 µM, first compound 0.316 µM) 96.3% | viability, T/C (second compound 0.01 µM, first compound 1 µM) 74.7% | viability, T/C (second compound 0.01 µM, first compound 3.16 µM) 65.7% | viability, T/C [7] 79.3% | viability, T/C [8] 66.2% | viability, T/C [9] 75.8% | viability, T/C [10] 73.6% | viability, T/C [11] 93.5% | viability, T/C [13] 60.9% | viability, T/C [14] 85.6% | viability, T/C [15] 86.5% | viability, T/C [16] 81% | viability, T/C [17] 78.8% | viability, T/C [19] 75.8% | viability, T/C [20] 69.3% | viability, T/C [21] 65.2% | viability, T/C [22] 77.2% | viability, T/C [23] 39.2% | viability, T/C [25] 66.8% | viability, T/C [26] 49% | viability, T/C [27] 47.4% | viability, T/C [28] 58.2% | viability, T/C [29] 50.1%
5.38 µM: IC50 (curve of first compound, second compound 0.00316 µM)

CCCS(=O)(=O)Nc1ccc(F)c(C(=O)c2c[nH]c3ncc(-c4ccc(Cl)cc4)cc23)c1F
active: viability, T/C (compound 10 µM) 2.53% [middle of 4 runs]
5.22 µM [middle of 4 runs]: IC50 (curve of compound)
inactive: viability, T/C (compound 0.1 µM) 97.4% [middle of 4 runs] | viability, T/C (compound 0.316 µM) 97.2% [middle of 4 runs] | viability, T/C (compound 1 µM) 100% [middle of 4 runs]

C[C@@H](NC(=O)c1ncnc(N)c1Cl)c1ncc(C(=O)Nc2cc(C(F)(F)F)c(Cl)cn2)s1 + Cc1nc(NC(=O)N2CCCC2C(N)=O)sc1-c1ccnc(C(C)(C)C(F)(F)F)c1
< 0.0316 µM: IC50 [6]
9.68 µM: IC50 [4]
> 10 µM: IC50 [1] | IC50 [2] | IC50 [3]
inactive: viability, T/C [7] 101% | viability, T/C [8] 75.5% | viability, T/C [9] 113% | viability, T/C [10] 136% | viability, T/C [11] 112% | viability, T/C [12] 106% | viability, T/C [13] 109% | viability, T/C [14] 90.3% | viability, T/C [15] 104% | viability, T/C [16] 110% | viability, T/C [17] 104% | viability, T/C [18] 54.8% | viability, T/C [19] 111% | viability, T/C [20] 104% | viability, T/C [21] 87.7% | viability, T/C [22] 63.9% | viability, T/C [23] 92.8% | viability, T/C [24] 79.4% | viability, T/C [25] 90.4% | viability, T/C [26] 93.3% | viability, T/C [27] 69% | viability, T/C [28] 94.4% | viability, T/C [29] 99.4% | viability, T/C [30] 48.8% | viability, T/C [31] 51.5% | viability, T/C [32] 71.5% | viability, T/C [33] 52% | viability, T/C [34] 42.5% | viability, T/C [35] 37.9% | viability, T/C [36] 35.8% | viability, T/C [37] 33.1% | viability, T/C [38] 29.2% | viability, T/C [39] 34.1% | viability, T/C [40] 38% | viability, T/C [41] 14.4% | viability, T/C [42] 14%
0.458 µM: IC50 [5]
